Key:
Format in all cases: cell-based, Human
[1] = test system: cytochrome c release in PC-3 cells; experiment: Western blot analysis of cytochrome c release in PC-3 cells; settings: 48 h
Experimental: (§1) Cell Line and Culture Conditions • Human metastatic, androgen insensitive prostate cancer cells, PC-3, were obtained from ATCC (Manassas, Va., USA). Cells were grown in F-12K medium supplemented with 2 mM glutamine, 10% FBS, 100 U/mL penicillin, and 100 μg/mL streptomycin. PC-3 cells were maintained in a humidified atmosphere of 5% CO2 at 37° C. in T-75 flasks and were subcultured when confluent.
Western blotting is a widely used analytical technique for detection of specific proteins separated from one another according to their size by gel electrophoresis. […] Once detected, the target protein will be visualized as a band on a blotting membrane, X-ray film, or an imaging system.
Cytochrome c is a heme-containing component of the electron transport chain in the mitochondrial membrane. […] In order to further confirm that carvacrol induced apoptosis in these cells, the release of cytochrome c from mitochondria into cytosol was analyzed using Western blot analysis in carvacrol-treated cells. […]
After maintaining constant agitation at 4° C. for 30 minutes, lysates were collected in microcentrifuge tubes and centrifuged at 12,000 rpm at 4° C. for 20 minutes. […] Protein concentration was determined using the Pierce® BCA protein assay kit. […] Western blot images are representative of at least 3 independent experiments, while quantification data represent mean±S.E.M. of n≧3 experiments.

PC-3 cells = experiment: Morphological analysis of PC-3 cells; settings: 10 μM and 1000 μM, 48 h
Experimental: as §1
These typical features of apoptosis were used to evaluate the mechanism of decreased cell proliferation by carvacrol in PC-3 cells.
In order to identify the morphological changes in PC-3 cells after treatment with carvacrol, 2×10^6 cells/well were seeded in flat-bottom, 6-well microtiter plates, allowed to grow for 24 h, then treated with 10 μM and 1000 μM of carvacrol, and incubated further for 48 h at 37° C. After incubation, cells were washed twice with PBS, and microscopic photographs of morphological changes of the cells were captured using a fluorescent microscope, Axiovert 200M (Carl Zeiss MicroImaging Inc, NY, USA). 1.15% EtOH was used as a solvent control.

LNCaP cells [2] = experiment: Morphological analysis of LNCaP cells; settings: 10 μM and 1000 μM, 48 hours, dose-dependent
Experimental: (§2) Human metastatic prostate cancer cells, LNCaP, were obtained from ATCC (Manassas, Va., USA). Cells were grown in RPMI-1640 medium supplemented with 2mM glutamine, 10% FBS, 100 U/mL penicillin, and 100 μg/mL streptomycin. LNCaP cells were maintained in a humidified atmosphere of 5% CO2 at 37° C. in T-75 flasks and were subcultured when confluent. Experiments were conducted using cells with passage numbers ranging from 5-20.
Prominent features of morphological changes occurring in a cell, such as cell shrinkage, rounding of cells, membrane blebbing, and formation of apoptotic bodies indicate induction of apoptosis or programmed cell death.
In order to identify the morphological changes in LNCaP cells after treatment with carvacrol, 2×10^6 cells/well were seeded in flat-bottom, 6-well microtiter plates, allowed to grow for 24 hours, treated with 10 μM and 1000 μM of carvacrol, and incubated for a further 48 hours at 37° C. Post incubation, cells were washed twice with PBS, and microscopic photographs of morphological changes of the cells were captured using a fluorescent microscope, Axiovert 200M (Carl Zeiss MicroImaging Inc, NY, USA). 1.15% EtOH was used in solvent control.

LNCaP cells [3] = experiment: DNA fragmentation assay (Apoptotic DNA-Ladder Kit) in LNCaP cells; settings: 10 μM and 1000 μM, 48 hours
Experimental: as §2
During apoptosis, pro-apoptotic proteins such as apoptosis-inducing factor (AIF), endonuclease G, and caspase-activated DNase (CAD) are released from the mitochondria, which occur after the cell has committed to die. AIF, after translocation to the nucleus, causes DNA fragmentation (˜50-300 kb pieces) and peripheral nuclear chromatin condensation which is referred to as “stage 1” condensation. Endonuclease G also cleaves nuclear chromatin to produce oligonucleosomal DNA fragments following its translocation to the nucleus. Both, AIF and endonuclease G function in caspase-independent manner. CAD subsequently released from mitochondria, after getting cleaved by activated caspase-3, is known to translocate into the nucleus leading to oligonucleosomal cleavage of DNA into 180 by fragments and a more pronounced chromatin condensation referred to as “stage 11” condensation.
This cleaved DNA is easily observed as a “ladder” upon analysis by gel electrophoresis. […]

Structure (SMILES): Cc1ccc(C(C)C)cc1O [Carvacrol]
- cytochrome c levels in cytosol (Western blot) ([1]; 10 μM, compared to solvent control): Increase in cytochrome c levels in cytosol was observed
- cytochrome c levels (Western blot) ([1]; 2000 μM, compared to 10 μM carvacrol-treated cells): decrease in levels of cytochrome c
- morphological changes (features of apoptosis) (PC-3 cells): exhibited typical features of apoptosis like rounding of cells, membrane blebbing, and cell shrinkage
- morphological changes (features of apoptosis) (LNCaP cells [2]): typical features of apoptosis like rounding of cells, membrane blebbing, cell shrinkage and formation of apoptotic bodies were observed
- fragmentation of DNA (LNCaP cells [3]): Fragmentation of DNA was observed

— patent publication US20140100290A1, “Method of treating a prostate condition” (priority 2012, published 2014)
